Test results as given in patent US9855265B2, “Methods for treating cancer with TrkA receptor tyrosine kinase antagonists” (VM Oncology LLC, priority 2014, dated 2018).

Tests used:
[1] = tested on: Panc-1 human pancreatic cancer cells; assay: Cell Viability and Proliferation Assay, Panc-1; format: cell-based; conditions: after 24 incubation
Description: (§1) Cell Viability and Proliferation Assays. To assess the chemosensitivity of tumor cells, cell viability is measured by CellTiter-Glo® Luminescent Cell Viability Assay (Promega; Wis., USA) per the manufacturer's instruction. Briefly, 5×10^3 to 7×10^5 cells/ml are cultured in sterile 96-well plates in the presence of increasing concentrations of the drugs (test article, 0 to 100 μM), or vehicle in RPMI medium. The plates are then incubated for 24 to 96 h, and then 100 μl of CellTiter-Glo reagent is added to lyse the cells. After a 10-min incubation at room temperature, the luminescence is recorded in a luminometer with an integration time of 1 s per well. The luminescence signals for the drug-treated cells are normalized by the luminescence signal obtained from vehicle-treated cells. As an alternative method to quantitate cell viability, the trypan blue exclusion dye method was used. Vehicle- or drug-treated cells were assayed by adding trypan blue solution (0.4% in phosphate-buffered saline [PBS]) to the culture medium. After 3 min, the number of dead cells that retained the dye is compared to the total number of cells to calculate cell viability. GraphPad Prism 5 software is used to calculate IC50 and plot effect-dose curve of drugs. Multiplate reader: EnVision 2104 (PerkinElmer). % of control variability=100*[(X(drug_treated)−L(baseline))/(H(vehicle_control)−L(baseline))]. […]

PKCeta = PKCeta (Homo sapiens, UniProt P24723); assay: radiometric kinase assay, other kinases: PKCeta; format: biochemical; conditions: duplicate
Description: (§2) Compound inhibition in a radiometric based mixed micelle assay: In a final reaction volume of 25 μL, TrkA (h) ([…]) is incubated with the kinase reaction buffer (20 mM HEPES (pH 7.5), 10 mM MgCl2, 1 mM EGTA, 0.02% Brij 35, 0.02 mg/ml BSA, 0.1 mM Na3VO4, 2 mM DTT, 1% DMSO), 0.2 mg/ml substrate PolyEY(4:1) and […], and [^33P-ATP](specific activity approx. 500 cpm/pmol, concentration as required). The reaction is initiated by the addition of the MgATP mix. After incubation for at least 40 minutes at room temperature, the reaction is stopped by the addition of 5 μL of a 3% phosphoric acid solution. 10 μL of the reaction is then spotted onto a P30 filtermat and washed three times for 5 minutes in 75 mM phosphoric acid and once in methanol prior to drying and scintillation counting. TrkA: Recombinant Human Cytoplasmic Domain (amino acids 441-796), Histidine-tagged, expressed in insect cells. Activated in vitro via auto-phosphorylation. Mw=42.8 kDa. Substrates for kinases: poly(EY) for TRKA; poly(EY)(4:1) with 2 mM MnCl2, average Mw=16 kDa Standard conditions (unless otherwise specified): 30 nM TRKA, 0.2 mg/ml poly(EY)+2 mM MnCl2, and 10 μM ([γ-^33P]) ATP. Using the similar assay condition with other kinases of recombinant human cytoplasmic domain, the activities of other kinases could be also measured.

MEK2 = MEK2 (Homo sapiens, UniProt P36507); assay: radiometric kinase assay, other kinases: MEK2; format: biochemical; conditions: duplicate
Description: as §2

AXL = target: T1, AXL (Homo sapiens, UniProt P30530); assay: radiometric kinase assay, other kinases: AXL; format: biochemical; conditions: duplicate
T1 construct: other kinases of recombinant human cytoplasmic domain
Description: as §2

CDK2/cyclinA = CDK2/cyclinA (Homo sapiens, UniProt P24941); assay: radiometric kinase assay, other kinases: CDK2/cyclinA; format: biochemical; conditions: duplicate
Description: as §2

BTK = BTK (Homo sapiens, UniProt Q06187); assay: radiometric kinase assay, other kinases: BTK; format: biochemical; conditions: duplicate
Description: as §2

MEK1 = MEK1 (Homo sapiens, UniProt Q02750); assay: radiometric kinase assay, other kinases: MEK1; format: biochemical; conditions: duplicate
Chain of MEK1 (Q02750 whole entry): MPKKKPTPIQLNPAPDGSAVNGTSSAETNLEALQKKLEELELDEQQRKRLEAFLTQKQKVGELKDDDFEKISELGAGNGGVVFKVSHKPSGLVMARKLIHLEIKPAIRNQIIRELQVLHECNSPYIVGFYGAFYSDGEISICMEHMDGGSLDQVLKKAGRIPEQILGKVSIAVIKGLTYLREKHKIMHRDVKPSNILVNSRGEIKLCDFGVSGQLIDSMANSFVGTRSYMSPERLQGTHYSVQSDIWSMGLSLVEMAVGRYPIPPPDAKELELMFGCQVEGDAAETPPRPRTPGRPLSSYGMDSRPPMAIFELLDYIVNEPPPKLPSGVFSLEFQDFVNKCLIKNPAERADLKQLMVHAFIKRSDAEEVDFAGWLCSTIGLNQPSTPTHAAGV
Description: as §2

PKCdelta = PKCdelta (Homo sapiens, UniProt Q05655); assay: radiometric kinase assay, other kinases: PKCdelta; format: biochemical; conditions: duplicate
Description: as §2

PKCtheta = PKCtheta (Homo sapiens, UniProt Q04759); assay: radiometric kinase assay, other kinases: PKCtheta; format: biochemical; conditions: duplicate
Description: as §2

c-Src = c-Src (Homo sapiens, UniProt P12931); assay: radiometric kinase assay, other kinases: c-Src; format: biochemical; conditions: duplicate
Chain of c-Src (P12931 whole entry): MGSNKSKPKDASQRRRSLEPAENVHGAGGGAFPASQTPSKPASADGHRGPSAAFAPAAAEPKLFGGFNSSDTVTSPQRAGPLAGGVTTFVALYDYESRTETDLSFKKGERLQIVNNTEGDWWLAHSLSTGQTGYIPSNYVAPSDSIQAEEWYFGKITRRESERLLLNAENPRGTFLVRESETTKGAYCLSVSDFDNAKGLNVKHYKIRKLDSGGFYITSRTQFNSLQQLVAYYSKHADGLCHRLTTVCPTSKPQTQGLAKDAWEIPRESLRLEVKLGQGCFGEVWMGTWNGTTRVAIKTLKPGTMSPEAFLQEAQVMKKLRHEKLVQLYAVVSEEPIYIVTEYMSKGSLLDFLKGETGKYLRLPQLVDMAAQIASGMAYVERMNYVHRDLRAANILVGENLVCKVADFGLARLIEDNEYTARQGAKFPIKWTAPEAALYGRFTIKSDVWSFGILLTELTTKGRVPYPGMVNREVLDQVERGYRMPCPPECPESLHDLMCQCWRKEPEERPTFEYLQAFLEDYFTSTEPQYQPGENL
Description: as §2

[2] = tested on: Capan-1 human pancreatic cancer cells; assay: Cell Viability and Proliferation Assay, Capan-1; format: cell-based; conditions: after 24 incubation
Description: as §1

[3] = tested on: HepG2 human liver cancer cells; assay: Cell Viability and Proliferation Assay, HepG2; format: cell-based; conditions: after 24 incubation
Description: as §1

[4] = target: other more than 400 kinases; assay: radiometric kinase assay, kinase panel; format: biochemical, human; conditions: duplicate
Description: as §2

MUSK = target: T2, MUSK (Homo sapiens, UniProt O15146); assay: radiometric kinase assay, other kinases: MUSK; format: biochemical; conditions: duplicate
T2 construct: other kinases of recombinant human cytoplasmic domain
T2 sequence (O15146 517-869 limits assumed): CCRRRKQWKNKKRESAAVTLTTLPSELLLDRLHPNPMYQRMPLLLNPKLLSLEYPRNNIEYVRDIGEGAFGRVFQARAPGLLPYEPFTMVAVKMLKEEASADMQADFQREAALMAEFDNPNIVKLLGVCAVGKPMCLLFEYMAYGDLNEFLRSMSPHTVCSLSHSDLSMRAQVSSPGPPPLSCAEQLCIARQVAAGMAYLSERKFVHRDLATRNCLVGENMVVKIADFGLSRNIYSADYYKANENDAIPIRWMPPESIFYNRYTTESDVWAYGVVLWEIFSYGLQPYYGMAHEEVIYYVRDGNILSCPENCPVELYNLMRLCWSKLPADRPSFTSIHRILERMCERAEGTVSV
Description: as §2

PKCzeta = PKCzeta (Homo sapiens, UniProt Q05513); assay: radiometric kinase assay, other kinases: PKCzeta; format: biochemical; conditions: duplicate
Chain of PKCzeta (Q05513 whole entry): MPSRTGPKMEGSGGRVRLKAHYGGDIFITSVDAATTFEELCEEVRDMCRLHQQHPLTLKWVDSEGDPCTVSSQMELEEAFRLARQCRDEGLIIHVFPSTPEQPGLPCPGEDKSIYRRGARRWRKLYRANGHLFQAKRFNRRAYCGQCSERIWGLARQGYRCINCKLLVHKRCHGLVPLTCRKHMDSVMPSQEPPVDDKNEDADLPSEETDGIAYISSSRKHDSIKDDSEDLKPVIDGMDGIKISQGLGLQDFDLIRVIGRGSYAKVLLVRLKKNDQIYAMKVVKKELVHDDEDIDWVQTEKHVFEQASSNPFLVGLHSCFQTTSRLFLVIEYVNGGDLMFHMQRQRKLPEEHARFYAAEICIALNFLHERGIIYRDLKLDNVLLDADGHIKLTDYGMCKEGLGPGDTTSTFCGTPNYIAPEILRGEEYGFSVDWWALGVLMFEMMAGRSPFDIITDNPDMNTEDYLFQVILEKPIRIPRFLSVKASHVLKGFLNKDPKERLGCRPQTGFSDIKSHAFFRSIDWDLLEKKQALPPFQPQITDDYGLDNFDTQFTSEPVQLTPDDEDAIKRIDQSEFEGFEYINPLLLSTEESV
Description: as §2

PKCalpha = PKCalpha (Homo sapiens, UniProt P17252); assay: radiometric kinase assay, other kinases: PKCalpha; format: biochemical; conditions: duplicate
Description: as §2

MLK1/MAP3K9 = MLK1/MAP3K9 (Homo sapiens, UniProt P80192); assay: radiometric kinase assay, other kinases: MLK1/MAP3K9; format: biochemical; conditions: duplicate
Description: as §2

PDGFRa = target: T3, PDGFRa (Homo sapiens, UniProt P16234); assay: radiometric kinase assay, other kinases: PDGFRa; format: biochemical; conditions: duplicate
T3 construct: other kinases of recombinant human cytoplasmic domain
T3 sequence (P16234 550-1089 limits assumed): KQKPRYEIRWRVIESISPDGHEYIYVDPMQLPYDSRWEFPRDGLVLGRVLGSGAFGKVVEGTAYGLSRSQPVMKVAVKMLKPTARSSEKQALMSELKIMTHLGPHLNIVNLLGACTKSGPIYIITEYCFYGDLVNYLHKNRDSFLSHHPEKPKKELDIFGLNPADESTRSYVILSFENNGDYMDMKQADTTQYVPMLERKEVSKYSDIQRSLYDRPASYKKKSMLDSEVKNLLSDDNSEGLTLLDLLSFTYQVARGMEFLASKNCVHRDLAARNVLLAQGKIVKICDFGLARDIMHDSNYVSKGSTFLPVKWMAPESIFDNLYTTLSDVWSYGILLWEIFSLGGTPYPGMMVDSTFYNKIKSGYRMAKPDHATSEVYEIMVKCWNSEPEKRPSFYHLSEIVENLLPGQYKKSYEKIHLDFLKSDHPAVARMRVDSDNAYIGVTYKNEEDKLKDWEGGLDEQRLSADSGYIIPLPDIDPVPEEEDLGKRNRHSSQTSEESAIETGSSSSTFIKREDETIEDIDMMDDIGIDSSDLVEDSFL
Description: as §2

FMS = target: T4, FMS (Homo sapiens, UniProt P07333); assay: radiometric kinase assay, other kinases: FMS; format: biochemical; conditions: duplicate
T4 construct: other kinases of recombinant human cytoplasmic domain
T4 sequence (P07333 539-972 limits assumed): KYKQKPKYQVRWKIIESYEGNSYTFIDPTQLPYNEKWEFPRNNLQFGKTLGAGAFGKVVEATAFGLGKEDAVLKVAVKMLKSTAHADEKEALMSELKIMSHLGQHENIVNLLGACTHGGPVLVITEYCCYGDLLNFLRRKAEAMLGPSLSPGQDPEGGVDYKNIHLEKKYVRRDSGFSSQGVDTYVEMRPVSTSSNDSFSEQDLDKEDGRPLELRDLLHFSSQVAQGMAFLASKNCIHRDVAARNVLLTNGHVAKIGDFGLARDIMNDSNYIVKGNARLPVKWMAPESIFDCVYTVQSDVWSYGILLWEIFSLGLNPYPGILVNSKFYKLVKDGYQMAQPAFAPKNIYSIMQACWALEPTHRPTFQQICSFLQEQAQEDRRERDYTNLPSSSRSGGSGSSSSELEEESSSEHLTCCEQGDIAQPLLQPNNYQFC
Description: as §2

ITK = ITK (Homo sapiens, UniProt Q08881); assay: radiometric kinase assay, other kinases: ITK; format: biochemical; conditions: duplicate
Chain of ITK (Q08881 whole entry): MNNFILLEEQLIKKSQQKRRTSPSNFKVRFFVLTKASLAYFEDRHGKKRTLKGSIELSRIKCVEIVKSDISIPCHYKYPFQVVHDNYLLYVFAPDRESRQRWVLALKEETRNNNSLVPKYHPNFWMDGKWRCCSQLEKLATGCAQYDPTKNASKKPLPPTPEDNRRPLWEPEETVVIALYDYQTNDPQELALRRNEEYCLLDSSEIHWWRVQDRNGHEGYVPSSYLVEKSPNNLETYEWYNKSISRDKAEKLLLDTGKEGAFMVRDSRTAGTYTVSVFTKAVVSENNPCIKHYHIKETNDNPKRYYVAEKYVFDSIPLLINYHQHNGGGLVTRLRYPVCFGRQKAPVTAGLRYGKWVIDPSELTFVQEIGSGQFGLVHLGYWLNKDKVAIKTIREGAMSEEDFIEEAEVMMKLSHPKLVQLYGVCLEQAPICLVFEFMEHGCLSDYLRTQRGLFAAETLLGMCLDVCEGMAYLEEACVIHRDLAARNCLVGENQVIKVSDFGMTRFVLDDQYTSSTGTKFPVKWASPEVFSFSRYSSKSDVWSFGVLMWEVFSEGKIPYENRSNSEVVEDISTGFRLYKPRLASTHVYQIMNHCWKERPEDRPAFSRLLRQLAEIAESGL
Description: as §2

IGF-1R = target: T5, IGF-1R (Homo sapiens, UniProt P08069); assay: radiometric kinase assay, other kinases: IGF-1R; format: biochemical; conditions: duplicate
T5 construct: other kinases of recombinant human cytoplasmic domain
Description: as §2

PKCepsilon = PKCepsilon (Homo sapiens, UniProt Q02156); assay: radiometric kinase assay, other kinases: PKCepsilon; format: biochemical; conditions: duplicate
Chain of PKCepsilon (Q02156 whole entry): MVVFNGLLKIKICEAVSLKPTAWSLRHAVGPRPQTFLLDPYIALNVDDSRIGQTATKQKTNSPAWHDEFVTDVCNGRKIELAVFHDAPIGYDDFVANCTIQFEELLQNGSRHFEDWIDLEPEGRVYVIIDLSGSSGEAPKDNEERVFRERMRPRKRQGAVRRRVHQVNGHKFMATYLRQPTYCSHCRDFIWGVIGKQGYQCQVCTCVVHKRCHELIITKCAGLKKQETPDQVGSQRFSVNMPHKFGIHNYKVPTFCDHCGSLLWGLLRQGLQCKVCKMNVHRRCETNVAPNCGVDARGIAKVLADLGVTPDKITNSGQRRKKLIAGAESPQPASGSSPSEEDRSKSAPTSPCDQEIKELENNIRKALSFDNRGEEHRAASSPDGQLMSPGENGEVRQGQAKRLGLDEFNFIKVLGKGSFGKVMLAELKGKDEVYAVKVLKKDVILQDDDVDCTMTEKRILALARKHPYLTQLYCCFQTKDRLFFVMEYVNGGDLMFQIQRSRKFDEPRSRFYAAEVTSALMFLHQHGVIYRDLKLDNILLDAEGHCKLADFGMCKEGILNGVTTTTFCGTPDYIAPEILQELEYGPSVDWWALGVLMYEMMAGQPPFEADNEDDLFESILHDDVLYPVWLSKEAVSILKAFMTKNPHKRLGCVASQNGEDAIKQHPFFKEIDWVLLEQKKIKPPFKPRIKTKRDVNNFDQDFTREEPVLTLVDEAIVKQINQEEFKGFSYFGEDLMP
Description: as §2

[5] = tested on: PANC-1 subcutaneous human pancreatic cancer xenografts; assay: PANC-1 Subcutaneous Human Pancreatic Cancer Xenograft Mouse Model
Description: Temperature: 22±3° C. Humidity: 50±20%. Light cycle: 12 hours light and 12 hours dark. Cages: Polycarbonate cages of 300 mm×180 mm×150 mm embedded with the soft wood material were used. The bedding was changed twice a week. Diet: Animals had free access to a certified commercial laboratory diet. Concentrations of contaminants in the diet are routinely analyzed by the manufacturers to ensure the contaminants are below their allowable maximum and thus would not affect the tumor growth.
Water: Animals had free access to sterile drinking water. Cage identification: The identification labels for each cage contained the following information: number of animals, sex, strain, date received, treatment, group number and the starting date of the treatment. Briefly, PANC-1 cell line was originally purchased from the ATCC (CRL-1469) and the PANC-1 primary cell line was derived from the PANC-1 subcutaneously xenograft tumors. The PANC-1 primary cells were maintained in vitro as monolayer culture in DMEM medium supplemented with 10% heat inactivated fetal bovine serum, 100 U/ml penicillin and 100 μg/ml streptomycin and L-glutamine (2 mM) at 37° C. in an atmosphere of 5% CO2 air. The cells growing in exponential phase were harvested and counted for tumor inoculation.
Tumor Cell Inoculation and Randomization. Each animal was inoculated subcutaneously on the right flank with the PANC-1 primary tumor cells (5×10^6/animal) in 0.1 mL of PBS. Tumor development was allowed undisrupted until mean tumor volume reached approximately 85 mm^3. Animals were then randomized into 6 groups, with each group consisting of 8 animals. The test articles were administered to the tumor-bearing animals according to predetermined regimens. […] At the time of routine monitoring, the animals were checked for any effects of tumor growth on normal behavior such as mobility, food and water consumption (by looking only), body weight (BW) gain/loss (BW was measured twice weekly), eye/hair matting and any other abnormal effect. Death and observed clinical signs were recorded on the basis of the numbers of animals within each subset.
Tumor Measurement and the Endpoints: The major endpoint was to evaluate if the tumor growth could be inhibited. Tumor measurement was conducted twice weekly with a caliper and the tumor volume (mm3) is estimated using the formula: TV=a×b^2/2, where a and b are long and short diameters of a tumor, respectively. The tumor sizes were then used for T/C value and TGI (tumor growth inhibition), which are indicators of anti-tumor effectiveness. The T/C value (in percent) is an indication of antitumor effect. T and C are the mean volumes of the treated and control groups, respectively, on a given day. BW change, expressed as %, is calculated using the following formula: BW change (%)=(BW_DayX/BW_Day0)×100, where BW_DayX is BW on a given day, and BW_Day0 was BW on Day 0 (tumor inoculation).
Tumor Sample Collection: Two tumor samples from Group 1, 2 and 3, respectively; six tumor samples from Group 4; five tumor samples from Group 5 and 6, respectively, were snap frozen in liquid nitrogen and kept at −80° C. Total 22 tumor samples were collected.
Statistical Analyses: A one-way ANOVA was performed to compare tumor volumes among groups. All data were analyzed using the SPSS 17.0 software; p<0.05 was considered statistically significant.

LCK = LCK (Homo sapiens, UniProt P06239); assay: radiometric kinase assay, other kinases: LCK; format: biochemical; conditions: duplicate
Description: as §2

CDK1/cyclinB = CDK1/cyclinB (Homo sapiens, UniProt P06493); assay: radiometric kinase assay, other kinases: CDK1/cyclinB; format: biochemical; conditions: duplicate
Chain of CDK1/cyclinB (P06493 whole entry): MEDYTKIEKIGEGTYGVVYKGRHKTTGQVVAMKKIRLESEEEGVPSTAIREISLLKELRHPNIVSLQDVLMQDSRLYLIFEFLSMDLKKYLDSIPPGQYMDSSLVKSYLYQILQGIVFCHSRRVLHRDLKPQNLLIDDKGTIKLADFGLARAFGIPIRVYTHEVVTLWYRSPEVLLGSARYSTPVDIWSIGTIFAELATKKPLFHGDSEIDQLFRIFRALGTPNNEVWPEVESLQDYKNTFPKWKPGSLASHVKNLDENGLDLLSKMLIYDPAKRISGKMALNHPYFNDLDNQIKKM
Chain of CDK1/cyclinB (P14635 whole entry partner): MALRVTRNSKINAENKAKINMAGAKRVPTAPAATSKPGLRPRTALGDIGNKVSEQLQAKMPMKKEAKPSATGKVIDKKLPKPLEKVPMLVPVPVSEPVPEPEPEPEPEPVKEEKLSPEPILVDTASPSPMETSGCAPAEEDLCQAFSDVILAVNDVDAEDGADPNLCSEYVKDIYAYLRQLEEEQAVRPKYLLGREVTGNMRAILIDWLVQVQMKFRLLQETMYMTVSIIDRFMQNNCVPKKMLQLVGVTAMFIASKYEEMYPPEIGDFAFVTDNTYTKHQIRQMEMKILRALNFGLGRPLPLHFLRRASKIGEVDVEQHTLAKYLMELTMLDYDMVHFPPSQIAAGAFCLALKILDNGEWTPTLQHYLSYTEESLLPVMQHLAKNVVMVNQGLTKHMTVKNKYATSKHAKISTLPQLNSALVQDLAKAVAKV
Description: as §2

Structure (SMILES): Nc1c(N2CCN(C3CCCCC3)CC2)cc(Nc2ccc(C(=O)O)cc2)c2c1C(=O)c1ccccc1C2=O [Compound 12, 4-{[4-amino-3-(4-cyclohexylpiperazin-1-yl)-9,10-dioxo-9,10-dihydroanthracen-1-yl]amino}benzoic acid]
- IC50 [1]: 2 to 5 µM
- IC50 (PKCeta): > 10 µM
- IC50 (MEK2): > 10 µM
- IC50 (AXL): > 10 µM
- IC50 (CDK2/cyclinA): > 10 µM
- IC50 (BTK): > 10 µM
- IC50 (MEK1): > 10 µM
- IC50 (PKCdelta): > 10 µM
- IC50 (PKCtheta): > 10 µM
- IC50 (c-Src): > 10 µM
- IC50 [2]: 2 to 5 µM
- IC50 [3]: ~5 µM
- IC50 [4]: > 10 µM
- IC50 (MUSK): > 10 µM
- IC50 (PKCzeta): > 10 µM
- IC50 (PKCalpha): > 10 µM
- IC50 (MLK1/MAP3K9): > 10 µM
- IC50 (PDGFRa): > 10 µM
- IC50 (FMS): > 10 µM
- IC50 (ITK): > 10 µM
- IC50 (IGF-1R): > 10 µM
- IC50 (PKCepsilon): > 10 µM
- TGI (%, D18) ([5]; D18, Compound-12 alone, dose not given): 34%
- Tumor volume (Mean ± SEM) ([5]; Day 7, Compound-12 alone, dose not given): 84 ± 4 mm^3
- Tumor volume (Mean ± SEM) ([5]; Day 11, Compound-12 alone, dose not given): 111 ± 5 mm^3
- Tumor volume (Mean ± SEM) ([5]; Day 14, Compound-12 alone, dose not given): 157 ± 15 mm^3
- Tumor volume (Mean ± SEM) ([5]; Day 18, Compound-12 alone, dose not given): 234 ± 8 mm^3
- Tumor volume (Mean ± SEM) ([5]; Day 19, Compound-12 alone, dose not given): 276 ± 27 mm^3
- anti-tumor efficacy in words ([5]; alone or in combination with gemcitabine): efficacious in reducing tumor growth
- IC50 (LCK): > 10 µM
- IC50 (CDK1/cyclinB): > 10 µM
